Laboratory results from ChEMBL document CHEMBL1136296, “3-cyanoindole-based inhibitors of inosine monophosphate dehydrogenase: synthesis and initial structure-activity relationships” (Bioorg Med Chem Lett, 2003).
pIC50: −log10 of the molar value.

Columns and labels:
[1] = molecular target: Inosine-5'-monophosphate dehydrogenase 2 (Homo sapiens, UniProt P12268); assay: Inhibitory activity tested against inosine-5'-monophosphate dehydrogenase 2 (IMPDH-II) enzyme
[2] = tested on: CCRF-CEM; assay: cells; conditions: Homo sapiens
Description: Inhibition of CEM (human leukemia) cell proliferation.

Row | SMILES | pIC50 [1] | pIC50 [2]
1 | COc1cc(NC(=O)Nc2cccc(C)c2)ccc1C#N | 6.54 | –
2 | COc1cc(Nc2ncc(-c3ccccc3)o2)ccc1C#N | 6.40 | –
3 | Cn1cc(C#N)c2ccc(Nc3ncc(-c4cccc(CNC(=O)OCCC#N)c4)o3)cc21 | 6.62 | < 5.00
4 | Cn1cc(C#N)c2ccc(Nc3ncc(-c4ccccc4CNC(=O)OC4CCOC4)o3)cc21 (configuration not stated) | 6.38 | < 5.00
5 | Cc1cccc(-c2cnc(Nc3ccc4c(C#N)cn(C)c4c3)o2)c1 | 6.31 | < 5.00
6 | Cn1cc(C#N)c2ccc(Nc3ncc(-c4ccc(CN)cc4)o3)cc21 | 6.59 | 5.55
7 | Cn1cc(C#N)c2ccc(Nc3ncc(-c4cccc(CNC(=O)c5cccc6ccccc56)c4)o3)cc21 | 7.08 | 5.60
8 | CC(=O)NCc1ccc(-c2cnc(Nc3ccc4c(C#N)cn(C)c4c3)o2)cc1 | 7.03 | < 5.00
9 | Cn1cc(C#N)c2ccc(Nc3ncc(-c4ccc(CNC(=O)C(C)(C)C)cc4)o3)cc21 | 6.74 | 5.31
10 | Cn1cc(C#N)c2ccc(Nc3ncc(-c4ccc(CNC(=O)c5ccccc5)cc4)o3)cc21 | 7.00 | < 5.00
11 | Cc1ccc(NC(=O)Nc2ccc3c(C#N)cn(C)c3c2)cc1 | 6.64 | –
12 | Cn1cc(C#N)c2ccc(Nc3ncc(-c4cccc(NC(=O)c5ccccc5)c4)o3)cc21 | 6.70 | 5.46
13 | Cc1ccc(-c2cnc(Nc3ccc4c(C#N)cn(C)c4c3)o2)cc1 | < 6.26 | –
14 | Cn1cc(C#N)c2ccc(Nc3ncc(-c4cccc(CNC(=O)OC5CCOC5)c4)o3)cc21 (configuration not stated) | 6.59 | < 5.00
15 | COc1cc(Nc2ncc(-c3ccccc3)o2)ccc1-c1cnco1 | 7.80 | –
16 | COc1cc(Nc2ncc(-c3ccccc3N(C)C(=O)CN3CCOCC3)o2)ccc1-c1cnco1 | – | 6.28

Continued by rising pIC50 [1], values first:

Row | pIC50 [1] | pIC50 [2] | SMILES
17 | 6.17 | – | Cc1cccc(NC(=O)Nc2ccc3c(C#N)cn(C)c3c2)c1
18 | 6.20 | – | Cn1cc(C#N)c2ccc(NC(=O)Nc3ccccc3)cc21
19 | 6.36 | – | Cc1ccccc1-c1cnc(Nc2ccc3c(C#N)cn(C)c3c2)o1
20 | 6.38 | < 5.00 | Cn1cc(C#N)c2ccc(Nc3ncc(-c4ccccc4CNC(=O)OCCC#N)o3)cc21
21 | 6.55 | 5.96 | Cn1cc(C#N)c2ccc(Nc3ncc(-c4ccccc4CN)o3)cc21
22 | 6.58 | – | CC(=O)OCC(=O)N(C)c1ccccc1-c1cnc(Nc2ccc3c(C#N)cn(C)c3c2)o1
23 | 6.68 | 5.85 | CN(C)CCOC(=O)NCc1cccc(-c2cnc(Nc3ccc4c(C#N)cn(C)c4c3)o2)c1
24 | 6.74 | 5.46 | Cn1cc(C#N)c2ccc(Nc3ncc(-c4cccc(CN)c4)o3)cc21
25 | 6.89 | 5.28 | Cn1cc(C#N)c2ccc(Nc3ncc(-c4cccc(CNC(=O)c5ccccc5)c4)o3)cc21
26 | 7.40 | 5.36 | Cn1cc(C#N)c2ccc(Nc3ncc(-c4cccc(CNC(=O)c5ccc6ccccc6c5)c4)o3)cc21
27 | 7.48 | 5.10 | Cn1cc(C#N)c2ccc(Nc3ncc(-c4ccccc4)o3)cc21
28 | 7.96 | 6.31 | COc1cc(NC(=O)Nc2cccc(CNC(=O)O[C@H]3CCOC3)c2)ccc1-c1cnco1 [MERIMEPODIB]
29 | 8.22 | – | CC[C@H](CC#N)OC(=O)NCc1cccc(NC(=O)Nc2ccc(C#N)c(OC)c2)c1
